Reference: US8754071B2 (priority 2011, dated 2014)
Like-named read-outs stand apart in the source and are kept apart here.

Target: T1, c-kit (Homo sapiens, UniProt P10721)
T1 construct: human Mo7e cells which endogenously express c-kit; endogenous in cells; host or cells: human Mo7e cells (promegakaryocytic leukemia line), stimulated with human recombinant SCF
Test: Mo7e cell proliferation assay (SCF dependent proliferation)
Format: cell-based
Settings: human Mo7e cells stimulated with SCF, 48 hours, CellTiter Glo, 1% FBS
Outline: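 Human Mo7e cells with endogenous c-kit, proliferation driven by SCF, 384-well format. After 48 h at 37 °C viability read by CellTiter-Glo luminescence. IC50 taken as concentration giving response halfway between baseline and maximum.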

[1] = Table 2, read-out: c-kit (Mo7e)
[2] = Table 1, read-out: c-kit (Mo7e)

T1 sequence (P10721 26-976): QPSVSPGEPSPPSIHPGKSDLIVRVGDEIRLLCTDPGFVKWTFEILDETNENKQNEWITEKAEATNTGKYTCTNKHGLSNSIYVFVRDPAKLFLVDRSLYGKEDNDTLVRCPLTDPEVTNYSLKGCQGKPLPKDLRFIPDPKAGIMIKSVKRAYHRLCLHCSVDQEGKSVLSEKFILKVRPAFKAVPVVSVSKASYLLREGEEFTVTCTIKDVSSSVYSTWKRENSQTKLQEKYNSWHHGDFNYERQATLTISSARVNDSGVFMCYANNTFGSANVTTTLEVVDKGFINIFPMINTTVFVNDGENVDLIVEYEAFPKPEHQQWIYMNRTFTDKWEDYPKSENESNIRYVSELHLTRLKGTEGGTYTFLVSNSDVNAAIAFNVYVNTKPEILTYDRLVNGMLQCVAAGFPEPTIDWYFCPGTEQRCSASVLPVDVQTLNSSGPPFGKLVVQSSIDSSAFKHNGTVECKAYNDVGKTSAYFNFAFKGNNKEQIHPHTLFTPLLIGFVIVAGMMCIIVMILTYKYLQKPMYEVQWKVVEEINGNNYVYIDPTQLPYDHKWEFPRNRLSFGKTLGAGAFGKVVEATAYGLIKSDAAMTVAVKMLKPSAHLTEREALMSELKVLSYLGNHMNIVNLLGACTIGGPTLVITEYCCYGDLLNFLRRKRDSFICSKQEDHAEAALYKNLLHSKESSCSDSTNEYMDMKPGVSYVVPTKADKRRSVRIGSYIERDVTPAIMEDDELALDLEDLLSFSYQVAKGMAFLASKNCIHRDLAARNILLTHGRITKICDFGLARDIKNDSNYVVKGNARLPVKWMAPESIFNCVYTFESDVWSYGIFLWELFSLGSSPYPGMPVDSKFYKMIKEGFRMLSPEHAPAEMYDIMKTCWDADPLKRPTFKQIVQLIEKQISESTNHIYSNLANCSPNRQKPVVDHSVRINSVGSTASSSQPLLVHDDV

Structure (SMILES)	IC50 [1] [µM]	IC50 [2] [µM]	also measured
COC(=O)N1CC(Cc2nc(-c3ccc(C)c(NC(=O)c4cnc5ccccn45)c3)no2)C1 [F177]	0.398		
COC(=O)N1CC(c2nc(-c3ccc(C)c(NC(=O)c4cnc5ccc(CCC(C)(C)O)cn45)c3)no2)C1 [F67, methyl 3-(3-(3-(6-(3-hydroxy-3-methylbutyl)imidazo[1,2-a]pyridine-3-carboxamido)-4-methylphenyl)-1,2,4-oxadiazol-5-yl)azetidine-1-carboxylate]		0.029	
COC(=O)N1CC(c2nc(-c3ccc(C)c(NC(=O)c4cnc5ccc(CCC(=O)O)cn45)c3)no2)C1 [F307]	> 10		
Cc1ccc(-c2noc(C3CN(C(=O)OC(C)C)C3)n2)cc1NC(=O)c1cnc2ccccn12 [F234]	0.245		
Cc1ccc(-c2noc([C@@H]3CNCCO3)n2)cc1NC(=O)c1cnc2ccccn12 [F123]	0.527		
Cc1ccc(-c2noc(C3CCCCN3C)n2)cc1NC(=O)c1cnc2ccccn12 (stereo not shown) [F111]	0.243		
O=C(Nc1cc(-c2noc(CN3CCOCC3)n2)ccc1F)c1cnc2ccccn12 [F229]	0.245		
Cc1ccc(-c2noc(C3CN(S(N)(=O)=O)C3)n2)cc1NC(=O)c1cnc2ccccn12 [F23, N-(2-methyl-5-(5-(1-sulfamoylazetidin-3-yl)-1,2,4-oxadiazol-3-yl)phenyl)imidazo[1,2-a]pyridine-3-carboxamide]		0.088	
Cc1ccc(-c2noc(CC3CCN(C(=O)OC(C)(C)C)CC3)n2)cc1NC(=O)c1cnc2ccccn12 [F210]	0.71		
Cc1ccc(-c2noc([C@H]3CCCN(S(C)(=O)=O)C3)n2)cc1NC(=O)c1cnc2ccccn12 [F209]	0.148		
Cc1nc(C)c(-c2ccc3ncc(C(=O)Nc4cc(-c5noc(CN6CC(C#N)C6)n5)ccc4C)n3c2)s1 [F99]		0.049	
Cc1ccc(-c2noc(CC3CCN(S(C)(=O)=O)CC3)n2)cc1NC(=O)c1cnc2ccccn12 [F215]	0.175		
Cc1ccc(-c2noc(N3CC(F)(F)C3)n2)cc1NC(=O)c1cnc2ccccn12 [F78]		0.055	
Cc1ccc(-c2noc([C@@H]3COCCN3C(=O)OC(C)(C)C)n2)cc1NC(=O)c1cnc2ccccn12 [F116]	0.792		
COC(=O)N1CC(C)(c2nc(-c3ccc(C)c(NC(=O)c4cnc5ccccn45)c3)no2)C1 [F240]	0.249		
Cc1ccc(-c2nc(N3CCC(F)CC3)no2)cc1NC(=O)c1cnc2ccccn12 [F5]		0.034	
Cc1ccc(-c2noc(C3CN(C(=O)OC(C)(C)C)CCO3)n2)cc1NC(=O)c1cnc2ccccn12 (stereo not shown) [F277]	1.25		
COC(=O)N1CCOC[C@H]1c1nc(-c2ccc(C)c(NC(=O)c3cnc4ccccn34)c2)no1 [F164]	0.269		
Cc1ccn2c(C(=O)Nc3cc(-c4noc(N5CCCC(C(F)(F)F)C5)n4)ccc3C)cnc2c1 (stereo not shown) [F93]		0.048	
Cc1ccc(-c2noc(C3CN(S(=O)(=O)C4CCOC4)C3)n2)cc1NC(=O)c1cnc2ccccn12 (stereo not shown) [F159]	0.157		
Cc1ccc(-c2noc(CN3CC(F)(F)C3)n2)cc1NC(=O)c1cnc2ccccn12 [F21]		0.044	
COC(=O)N1CC(c2nc(-c3ccc(C)c(NC(=O)c4cnc5cc(-c6ccn(C)n6)ccn45)c3)no2)C1 [F56, methyl 3-(3-(4-methyl-3-(7-(1-methyl-1H-pyrazol-3-yl)imidazo[1,2-a]pyridine-3-carboxamido)phenyl)-1,2,4-oxadiazol-5-yl)azetidine-1-carboxylate]		0.006	
Cc1ccc(-c2noc(CCC(=O)N3CCOCC3)n2)cc1NC(=O)c1cnc2ccccn12 [F124]	0.426		

Structure (SMILES)	IC50 [1] [µM]	IC50 [2] [µM]	also measured
Cc1ccn2c(C(=O)Nc3cc(-c4noc(N5CCN6C(=O)OC[C@@H]6C5)n4)ccc3C)cnc2c1 [F255]	0.129		
CCS(=O)(=O)N1CC(c2nc(-c3ccc(F)c(NC(=O)c4cnc5ccccn45)c3)no2)C1 [F28, N-(5-(5-(1-(ethylsulfonyl)azetidin-3-yl)-1,2,4-oxadiazol-3-yl)-2-fluorophenyl)imidazo[1,2-a]pyridine-3-carboxamide]		0.12	
Cc1ccc(-c2noc(C3(C)CN(S(C)(=O)=O)C3)n2)cc1NC(=O)c1cnc2ccccn12 [F58]		0.089	
Cc1ccc(-c2noc(C3CNC3)n2)cc1NC(=O)c1cnc2ccccn12 [F298]	2.86		
CCCS(=O)(=O)N1CC(c2nc(-c3ccc(F)c(NC(=O)c4cnc5ccccn45)c3)no2)C1 [F156]	0.124		
Cc1ccc(-c2noc([C@H]3CN(S(C)(=O)=O)CCO3)n2)cc1NC(=O)c1cnc2ccccn12 [F37]		0.06	
Cc1ccc(-c2noc(CC3CCOCC3)n2)cc1NC(=O)c1cnc2ccccn12 [F17]		0.027	
Cc1ccc(-c2noc([C@@H]3CCCN3C(=O)OC(C)(C)C)n2)cc1NC(=O)c1cnc2ccccn12 [F176]	0.452		
Cc1ccc(-c2noc(C3CN(S(=O)(=O)c4cn[nH]c4)C3)n2)cc1NC(=O)c1cnc2ccccn12 [F218]	0.155		
COC(=O)N1CC(c2nc(-c3ccc(C)c(NC(=O)c4cnc5ccc(CCN6CCOCC6)cn45)c3)no2)C1 [F66, methyl 3-(3-(4-methyl-3-(6-(2-morpholinoethyl)imidazo[1,2-a]pyridine-3-carboxamido)phenyl)-1,2,4-oxadiazol-5-yl)azetidine-1-carboxylate]		0.05	
Cc1ccc(-c2noc(CC3CNC3)n2)cc1NC(=O)c1cnc2ccccn12 [F295]	2.2		
Cc1nc(N2CC(c3nc(-c4ccc(C)c(NC(=O)c5cnc6ccccn56)c4)no3)C2)no1 [F244]	0.176		
Cc1ccc2ncc(C(=O)Nc3cc(-c4noc(COC5CNC5)n4)ccc3C)n2c1 [F293]	2.15		
COC(=O)N1CC(c2nc(-c3ccc(C)c(NC(=O)c4cnc5ccc(CCCC#N)cn45)c3)no2)C1 [F59, methyl 3-(3-(3-(6-(3-cyanopropyl)imidazo[1,2-a]pyridine-3-carboxamido)-4-methylphenyl)-1,2,4-oxadiazol-5-yl)azetidine-1-carboxylate]		0.033	
COC(=O)N1CCC(c2nc(-c3ccc(C)c(NC(=O)c4cnc5ccccn45)c3)no2)C1 (stereo not shown) [F169]	0.132		
Cc1ccc(-c2nc(N3CCC3)no2)cc1NC(=O)c1cnc2ccccn12 [F1]		0.049	
COC(=O)N1CCC[C@H]1c1nc(-c2ccc(C)c(NC(=O)c3cnc4ccccn34)c2)no1 [F196]	0.475		
Cc1ccc(-c2noc(C[C@@H]3CCN(S(C)(=O)=O)C3)n2)cc1NC(=O)c1cnc2ccccn12 [F38]		0.09	
Cc1ccc(-c2noc([C@@H]3CCC(F)(F)CO3)n2)cc1NC(=O)c1cnc2ccccn12 [F11]			IC50 (c-kit (Mo7e) μM, Table 1): 0.023 µM
Cc1ccn2c(C(=O)Nc3cc(-c4noc(N5CC(F)(F)C5)n4)ccc3C)cnc2c1 [F86]		0.093	
Cc1ccc(-c2noc(C3CCCNC3)n2)cc1NC(=O)c1cnc2ccccn12 (stereo not shown) [F285]	1.67		
COC(=O)NC1(c2nc(-c3ccc(C)c(NC(=O)c4cnc5ccccn45)c3)no2)COC1 [F26, methyl (3-(3-(3-(imidazo[1,2-a]pyridine-3-carboxamido)-4-methylphenyl)-1,2,4-oxadiazol-5-yl)oxetan-3-yl)carbamate]		0.103	
COCC1CN(Cc2nc(-c3ccc(C)c(NC(=O)c4cnc5ccccn45)c3)no2)C1 [F182]	0.259		

Structure (SMILES)	IC50 [1] [µM]	IC50 [2] [µM]	also measured
Cc1ccc(-c2noc(CCN3CC(F)(F)C3)n2)cc1NC(=O)c1cnc2ccccn12 [F179]	0.119		
CS(=O)(=O)N1CC(c2nc(-c3ccc(F)c(NC(=O)c4cnc5ccccn45)c3)no2)C1 [F154]	0.472		
COC(=O)N1CC(c2nc(-c3ccc(C)c(NC(=O)c4cnn5ccccc45)c3)no2)C1 [F48]		0.08	
Cc1ccc(-c2noc(C3CN(C(=O)OCCN4CCOCC4)C3)n2)cc1NC(=O)c1cnc2ccccn12 [F134]	0.892		
Cc1ccc(-c2noc(CN3CCCC3=O)n2)cc1NC(=O)c1cnc2ccccn12 [F143]	0.314		
COCCS(=O)(=O)N1CC(c2nc(-c3ccc(F)c(NC(=O)c4cnc5ccccn45)c3)no2)C1 [F222]	0.376		
Cc1ccc2ncc(C(=O)Nc3cc(-c4noc(COC5CN(C(=O)OC(C)(C)C)C5)n4)ccc3C)n2c1 [F267]	0.65		
COC(=O)N1CC(c2nc(-c3ccc(C)c(NC(=O)c4cnc5cc(-c6cnn(CCN7CCOCC7)c6)ccn45)c3)no2)C1 [F63]		0.013	
Cc1ccc(-c2noc(C3CN(S(=O)(=O)C(F)F)C3)n2)cc1NC(=O)c1cnc2ccccn12 [F43]		0.024	
Cc1ccc(-c2nc(N3CC(C)(O)C3)no2)cc1NC(=O)c1cnc2ccccn12 [F251]	0.157		
Cc1ccc(-c2noc(CN3CC(F)C3)n2)cc1NC(=O)c1cnc2ccccn12 [F130]	0.127		
Cc1ccc(-c2noc(CNC(=O)CN3CCOCC3)n2)cc1NC(=O)c1cnc2ccccn12 [F144]	0.963		
Cc1ccc(-c2noc(C3(N)COC3)n2)cc1NC(=O)c1cnc2ccccn12 [F286]	1.68		
Cc1ccc(-c2noc(C3CCNCC3)n2)cc1NC(=O)c1cnc2ccccn12 [F290]	1.89		
Cc1ccc(-c2noc(CN3CC(C#N)C3)n2)cc1NC(=O)c1cnc2ccc(-c3cnn(C)c3)cn12 [F256]	0.106		
Cc1ccc2ncc(C(=O)Nc3cc(-c4noc(NC5CCOCC5)n4)ccc3C)n2c1 [F82]		0.055	
Cc1ccc2ncc(C(=O)Nc3cc(-c4noc(COC5COC5)n4)ccc3C)n2c1 [F260]	0.205		
COC(=O)N1CC(c2nc(-c3cc(NC(=O)c4cnc5ccccn45)c(C)cc3C)no2)C1 [F79, methyl 3-(3-(5-(imidazo[1,2-a]pyridine-3-carboxamido)-2,4-dimethylphenyl)-1,2,4-oxadiazol-5-yl)azetidine-1-carboxylate]		0.037	
Cc1ccc(-c2noc([C@@H]3COCCN3)n2)cc1NC(=O)c1cnc2ccccn12 [F276]	1.24		
O=C(Nc1cc(-c2noc(C3CN(S(=O)(=O)C(F)F)C3)n2)ccc1F)c1cnc2ccccn12 [F223]	0.151		
COC(=O)N1CCOC[C@@H]1c1nc(-c2ccc(C)c(NC(=O)c3cnc4ccccn34)c2)no1 [F166]	0.163		
